{
  "source": "ChEMBL document CHEMBL1135755",
  "about": "“SAR by MS: a ligand based technique for drug lead discovery against structured RNA targets” (J Med Chem, 2002)",
  "key": {"[1]": {"experiment": "Dissociation constant was determined", "assay_type": "physicochemical"}, "[2]": {"system": "Nucleic Acid", "experiment": "Inhibitory activity against RNA target using functional assay"}},
  "data": [
    {"molecule": "NCC[C@@H](NC(=O)c1ccc(-c2cccc(NC(=O)c3ccc4nc(O)c(O)nc4c3)c2)o1)C(=O)N1CCNCC1", "values": [
      {"measurement": "Kd", "setting": "[1]", "result": 6.5, "unit": "µM"},
      {"measurement": "IC50", "setting": "[2]", "result": 14, "unit": "µM"}
    ]}
  ]
}
